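Grown in 96-well plates, cells were treated for 48 hours with each compound at five concentrations. Insufficient inhibition: endpoint recorded as highest concentration tested. GI50 is the concentration that inhibits growth by half. Definition used: TGI = concentration required for complete inhibition of growth.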

Here are results for 9 compounds from PubChem BioAssay (NCI).

Holding throughout (assay): NCI tumour cell line growth inhibition, 48 h
Assay [1] deals with SF-268 CNS.
The subject of assay [2] is KM12 colon.
For assay [3], the system named is OVCAR-8 ovarian.
For assay [4], the system named is NCI-H226 lung.
In assay [5] the test system is SR leukemia.
For assay [6], the system named is MDA-MB-435.
Assay [7] relates to NCI/ADR-RES ovarian.
Assay [8] relates to CCRF-CEM leukemia.
The test system of assay [9] is SNB-75 CNS.
The subject of assay [10] is HT29 colon.

As for `O=C1/C(=C/c2ccccc2)CN(C(=O)CCN2CCOCC2)C/C1=C\c1ccccc1`, the TGI in assay [1] worked out at 8.73 µM; in assay [2], 2.99 µM; in assay [3] it was 10.3 µM; in assay [4], 15 µM; in [5], 4.04 µM; in assay [6] it was 3.58 µM. The TGI stood at 9.46 µM in assay [7], 9.81 µM in [8], 20 µM in assay [9] and 3.8 µM in assay [10].

Take `Cn1ncnc1[C@H]1c2n[nH]c(=O)c3cc(F)cc(c23)N[C@@H]1c1ccc(F)cc1`: the GI50 in assay [1] is 3.07 µM; in assay [2], more than 100 µM; in assay [3], more than 100 µM; in [4] it was more than 100 µM; in assay [5], 0.0417 µM; in [6] it was more than 100 µM. The GI50 in [7] is more than 100 µM; in [8] it was 1.27 µM; in [9] it was 15.1 µM; in [10] it was more than 100 µM. Besides, the TGI in assay [1], in [2], in assay [3], in [4], in assay [5] and in [6] was more than 100 µM throughout. The TGI in [7], in assay [8], in [9] and in assay [10] was more than 100 µM each time.

As for `O=C(/C=C/Sc1cc(C(F)(F)F)cc(C(F)(F)F)c1)c1ccc(Cl)cc1`, the GI50 was 14.4 µM in assay [1]; 13.5 µM in assay [2]; 9.9 µM in assay [3]; 2.49 µM in [4]; 2.02 µM in assay [5]; 4.22 µM in [6]. In addition, the GI50 in assay [7] is 23.4 µM; in [8] it was 0.271 µM; in [9], 12.8 µM; in [10], 6.93 µM. Besides, the TGI in assay [1] stood at 29.6 µM; in assay [2], 27.8 µM; in assay [3] it was 45.3 µM; in assay [4], 7.32 µM; in assay [5] it was 5.32 µM; in assay [6], 15.3 µM. For the same compound, the TGI in assay [7] was 46.3 µM; in [8], 1.74 µM; in [9], 25.7 µM; in assay [10], 23.9 µM.

Consider `COc1cc2nc(N3CCCC3)nc(NCc3ccccc3)c2cc1OC`, for which the GI50 in assay [1] was 8.31 µM; in assay [2], 4.52 µM; in [3] it was 3.2 µM; in [4], 17.3 µM; in [5], 1.53 µM; in assay [6] it was 1.69 µM. Also, the GI50 in assay [7] is 3.71 µM; in [8], 2.55 µM; in assay [9] it was 1.69 µM; in assay [10] it was 2.29 µM. Further, the TGI in assay [1] came to 23.9 µM; in assay [2], 17 µM; in assay [3], 13.7 µM; in [4], 40.4 µM; in [5], 5.3 µM; in [6], 3.16 µM. Besides, the TGI in [7] amounted to 18.7 µM; in [8], 8.07 µM; in assay [9], 5.38 µM; in assay [10], 7.29 µM.

As to `COC(C(=O)NN)c1ccccc1` (stereo not drawn), the TGI in assay [1], in [2], in assay [3], in assay [4], in assay [5] and in assay [6] was more than 100 µM each time. In addition, the TGI in assay [7], in [9] and in [10] was more than 100 µM in each case.

Regarding `COc1cc(OC)c2nc(C)c3c(c2c1)SCC3`, the TGI in assay [1] is 44.6 µM; in [2], more than 100 µM; in assay [3], 35.4 µM; in assay [4], 43.8 µM; in assay [5] it was 52.2 µM; in assay [6], 58.3 µM. The figures for the TGI in assay [7], in [8] and in [10] were 65.5 µM, more than 100 µM and 99.4 µM, respectively.

As to `COC(=O)C1(Cc2ccc3c(c2)CCC3)Cc2ccccc2C1O` (stereo not drawn), the TGI in assay [1] amounted to 41.6 µM; in assay [2] it was 47.6 µM; in assay [3], 36 µM; in [4], 36.6 µM; in assay [5], 75.9 µM; in assay [6] it was 36.7 µM. Besides, the TGI is 60.1 µM in assay [7], 47.5 µM in assay [8] and 31.6 µM in assay [10].

In the case of `O=C1c2cc3c(cc2[C@@H]2[C@H]1c1ccc([N+](=O)[O-])cc1C(=O)N2CCCBr)OCO3`, the GI50 in assay [1] was less than 0.01 µM; in [2], 0.0437 µM; in [3] it was less than 0.01 µM; in assay [4], less than 0.01 µM; in assay [5], less than 0.01 µM; in assay [6] it was less than 0.01 µM. Also, the GI50 in assay [7], in assay [9] and in assay [10] was less than 0.01 µM in each case. Moreover, the TGI in assay [1] is 0.394 µM; in assay [2], 3.95 µM; in [3] it was 0.271 µM; in assay [4] it was less than 0.01 µM; in [5], less than 0.01 µM; in assay [6] it was 0.219 µM. The TGI in [7] is 0.0177 µM; in [9], 0.0775 µM; in [10], more than 100 µM.

In the case of `CCCCOC(=O)N1CCN(/[N+]([O-])=N/Oc2ccc([N+](=O)[O-])cc2[N+](=O)[O-])CC1`, the GI50 in [1] is 6.42 µM; in assay [2] it was 3.65 µM; in assay [3], 25.5 µM; in assay [4] it was 2.54 µM; in assay [5], more than 100 µM; in [6], 4.6 µM. In addition, the GI50 was 3.43 µM in assay [7], 21.1 µM in assay [9] and 4.67 µM in [10]. Moreover, the TGI in assay [1] is 25.4 µM; in assay [2], 14.5 µM; in assay [3], more than 100 µM; in [4], 5.95 µM; in assay [5], more than 100 µM; in assay [6], 16.4 µM. The TGI in [7] is more than 100 µM; in assay [9], 37.9 µM; in assay [10], more than 100 µM.
